Assay results reported in patent US20120022056A1, “FUSED TRICYCLIC DERIVATIVES FOR THE TREATMENT OF PSYCHOTIC DISORDERS” (priority 2005, published 2012).
Structures can show the parent of a compound that is named as a salt.

target: T1, 5-HT1A receptor (Homo sapiens, UniProt P08908); assay: GTPγS binding functional potency assay (primary screen), 5-HT1A; format: biochemical; details: assay a), membranes of HEK293 cells transfected with human 5-HT1A, read-out: fpKi at the 5-HT1A receptor
T1 construct: expressed in transfected cells; host or cells: HEK293 (membranes)
T1 sequence (P08908 1-422): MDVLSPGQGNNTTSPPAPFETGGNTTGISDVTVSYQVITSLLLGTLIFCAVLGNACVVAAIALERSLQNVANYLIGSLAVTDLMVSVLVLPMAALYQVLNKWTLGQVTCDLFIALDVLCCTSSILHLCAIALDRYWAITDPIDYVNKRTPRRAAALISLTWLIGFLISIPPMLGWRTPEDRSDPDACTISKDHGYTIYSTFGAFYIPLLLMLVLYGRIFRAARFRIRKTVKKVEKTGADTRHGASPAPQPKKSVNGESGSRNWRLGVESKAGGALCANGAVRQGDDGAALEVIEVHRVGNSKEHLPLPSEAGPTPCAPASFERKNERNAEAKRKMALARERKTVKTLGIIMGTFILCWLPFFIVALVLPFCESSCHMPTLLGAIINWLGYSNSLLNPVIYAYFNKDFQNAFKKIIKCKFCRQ
Experimental: a) Functional Potency—Primary Screen
The functional potency may be determined by the following GTPγS binding protocol. Cells used in the study are CHO Cells and Human Embryo Kidney (HEK293). Cells were transfected with DNA coding for human receptors as follows: HEK293—5-HT1A; CHO—5-HT1B; and CH—5-HT1D. Test compounds were initially dissolved in 100% dimethyl sulfoxide to a concentration of 10 mM. Serial dilution of the test compounds in 100% dimethyl sulphoxide was carried out using a Biomek FX in 384 well assay plates, so that the final top concentration of test compound is 3 μM in the assay. Add the test compound at 1.0% total assay volume (TAV) to a solid, white, 384 well assay plate (Costar). Add 50% TAV of precoupled (for 90 mins @ RT) membranes (5 ug/well), Wheatgerm Agglutinin Polystyrene Scintillation Proximity Assay beads (RPNQ0260 Amersham International) (0.25 mg/well) in 20 mM HEPES pH 7.4, 100 mM NaCl, 3 mM MgCl2 and 10 μM GDP. The third addition was a 20% TAV addition of either buffer, agonist format, or EC80 final assay concentration (FAC) of agonist, 5HT antagonist format, prepared in assay buffer. The assay was started by the addition of 29% TAV of GTPγS 0.38 nM FAC. After all additions assay plates were incubated at RT for 2-3 hours. Assay plates were counted on a Viewlux, 613/55 filter for 5 mins. Assay plates were read between 2-6 hours after the final addition.

SMILES | Ki [nM]
CCOC(=O)c1nnn2c1ccc1c(CCN3CCN(c4cccc5nc(C)ccc45)CC3)cccc12 [Example 97, ethyl 6-{2-[4-(2-methyl-5-quinolinyl)-1-piperazinyl]ethyl}[1,2,3]triazolo[1,5-a]quinoline-3-carboxylate dihydrochloride] | < 10
Cc1ccc2c(N3CCN(CCc4cccc5c4ccc4c(-c6nc(C)no6)ncn45)[C@H](C)C3)cccc2n1 [Example 105, 6-{2-[(2R)-2-methyl-4-(2-methyl-5-quinolinyl)-1-piperazinyl]ethyl}-3-(3-methyl-1,2,4-oxadiazol-5-yl)imidazo[1,5-a]quinoline dihydrochloride] | < 10
Cc1ccc2c(C3CCN(CCc4cccc5c4CCc4c(C(N)=O)ncn4-5)CC3)cccc2n1 [Example 122, 6-{2-[4-(2-methyl-5-quinolinyl)-1-piperidinyl]ethyl}-4,5-dihydroimidazo[1,5-a]quinoline-3-carboxamide dihydrochloride] | < 10
CNC(=O)c1ncn2c1COc1c-2ccc(C)c1CCN1CCC(c2cccc3nc(C)ccc23)CC1 [Example 124, N,7-dimethyl-6-{2-[4-(2-methyl-5-quinolinyl)-1-piperidinyl]ethyl}-4H-imidazo[5,1-c][1,4]benzoxazine-3-carboxamide dihydrochloride] | < 10
Cc1ccc2c(C3CCN(CCc4c(C)ccc5c4OCc4c(C(N)=O)ncn4-5)CC3)cccc2n1 [Example 125, 7-methyl-6-{2-[4-(2-methyl-5-quinolinyl)-1-piperidinyl]ethyl}-4H-imidazo[5,1-c][1,4]benzoxazine-3-carboxamide dihydrochloride] | < 10

Next, values leading:

Ki [nM] | SMILES
< 10 | CNC(=O)c1ncn2c1CCc1c(CCN3CCC(c4cccc5nc(C)ccc45)CC3)cccc1-2 [Example 83, N-methyl-6-{2-[4-(2-methyl-5-quinolinyl)-1-piperidinyl]ethyl}-4,5-dihydroimidazo[1,5-a]quinoline-3-carboxamide dihydrochloride]
< 10 | CNC(=O)c1ncn2c1ccc1c(CCN3CCC(c4cccc5nc(C)ccc45)CC3)cccc12 [Example 89, N-methyl-6-{2-[4-(2-methyl-5-quinolinyl)-1-piperidinyl]ethyl}imidazo[1,5-a]quinoline-3-carboxamide dihydrochloride]
< 10 | Cc1ccc2c(C3CCN(CCc4cccc5c4ccc4c(C(N)=O)ncn45)CC3)cccc2n1 [Example 91, 6-{2-[4-(2-methyl-5-quinolinyl)-1-piperidinyl]ethyl}imidazo[1,5-a]quinoline-3-carboxamide dihydrochloride]
< 10 | Cc1ccc2c(N3CCN(CCc4cccc5c4ccc4nnnn45)[C@H](C)C3)cccc2n1 [Example 94, 6-{2-[(2R)-2-methyl-4-(2-methyl-5-quinolinyl)-1-piperazinyl]ethyl}tetrazolo[1,5-a]quinoline dihydrochloride]
